Columns and labels:
[1] = tested on: Primary rat oligodendrocyte progenitor cells; test: Oligodendrocyte toxicity assay, progenitor cells (OLP), SIN-1, LDH release; assay type: cell-based; conditions: compound 10 nm, 1 hour pretreatment; Sin-1 10 mM; LDH after 24 hours; oligodendrocyte progenitors
Method: (§1) Primary rat oligodendrocyte progenitor cells were obtained from the cerebra of 2-3 day old postnatal rats (Sprague Dawley). The meninges were removed and tissue was mechanically dissociated. Cells were plated on T75 flasks and fed with DMEM+10% FBS.
(§2) Enriched OLPs were collected by mechanical separation from the astrocytic monolayer and were expanded in serum free media (SFM) supplemented with the mitogens, PDGF-AA (10 ng/ml) and FGF-2 (10 ng/ml).
(§3) Cells were plated in 96-well plates, 10,000 per well. Medium was changed to fresh medium and cells were pretreated with compounds for 1 hour. Toxins were added to give the following final concentrations: • Sin-1 10 mM • Pyrogallol 500 μM • C2 ceramide 100 μM • Camptothecin 10 μM
(§4) After 24 hours, medium was removed and assayed for LDH activity using the Promega cytotox 96 kit (catalog# G1780). Results were calculated as percent protection against toxin-induced toxicity.

mature oligodendrocytes = test: Oligodendrocyte toxicity assay, mature oligodendrocytes (OL), SIN-1, LDH release; assay type: cell-based, rat; conditions: compound 10 nm, 1 hour pretreatment, Sin-1 10 mM, LDH after 24 hours
Method: as §1, §2
To generate mature oligodendrocytes, progenitor cells were switched to SFM supplemented with IGF-1 (10 ng/ml) 24 hours after plating and cells were grown under these conditions for 7 days prior to experimental assays.
as §3, §4

SK-N-SH cells = conditions: U-0126 given with the tested compounds
Method: Cells from a human neuroblastoma cell line, SK-N-SH cells, were plated at 50,000 cells/well in Costar Biocoat 96-well poly-D-lysine coated plates in EMEM (Minimum Essential Medium Eagle with Earle's salts) containing penicillin/streptomycin, L-glutamine, sodium pyruvate, non-essential amino acids and sodium bicarbonate. Cells were grown overnight in a 37° C. incubator under 5% CO2. The next day, the medium was removed and replaced with fresh medium. Cells were pretreated with Serms for 1 hour, and SIN-1 (3-morpholinosydnonimine, which produces peroxynitrite) was added to give a final concentration of 2 or 10 mM. After 24 hours, the medium was removed and assayed for LDH activity using the Promega cytotox 96 kit (catalog# G1780). Results were calculated as percent protection against SIN-1 toxicity.

Row | SMILES | % Protection (SIN-1*) OLP 10 nm [1] | % Protection (SIN-1*) OL 10 nm (mature oligodendrocytes) | effect of MEK inhibitor on the neuroprotection by the compounds (SK-N-SH cells)
1 | COc1ccc(-c2sc3cc(O)ccc3c2Oc2ccc(OCCN3CCCCC3)cc2)cc1 [Arzoxifen] | 1.485% | 8.237% | –
2 | N#CC(=C(/N)Sc1ccccc1N)/C(C#N)=C(\N)Sc1ccccc1N [U-0126] | – | – | inhibition of the neuroprotection
